Our source for the residual activity and Activity values is ChEMBL document CHEMBL5649166, “RIP3 induces apoptosis independent of pronecrotic kinase activity” (Mol Cell, 2014).

What is called residual activity is the signal under treatment as a percentage of the control signal.

For series [1], the target named is Ephrin type-A receptor 7 (Homo sapiens) (UniProt Q15375). In words: Inhibition of human EPHA7 using poly[Glu:Tyr] (4:1) as substrate at 1 uM in presence of 32P-ATP by Hotspot assay relative to control; values are per cent of control.
Sequence of Ephrin type-A receptor 7 (Homo sapiens) (Q15375 28-998 limits assumed): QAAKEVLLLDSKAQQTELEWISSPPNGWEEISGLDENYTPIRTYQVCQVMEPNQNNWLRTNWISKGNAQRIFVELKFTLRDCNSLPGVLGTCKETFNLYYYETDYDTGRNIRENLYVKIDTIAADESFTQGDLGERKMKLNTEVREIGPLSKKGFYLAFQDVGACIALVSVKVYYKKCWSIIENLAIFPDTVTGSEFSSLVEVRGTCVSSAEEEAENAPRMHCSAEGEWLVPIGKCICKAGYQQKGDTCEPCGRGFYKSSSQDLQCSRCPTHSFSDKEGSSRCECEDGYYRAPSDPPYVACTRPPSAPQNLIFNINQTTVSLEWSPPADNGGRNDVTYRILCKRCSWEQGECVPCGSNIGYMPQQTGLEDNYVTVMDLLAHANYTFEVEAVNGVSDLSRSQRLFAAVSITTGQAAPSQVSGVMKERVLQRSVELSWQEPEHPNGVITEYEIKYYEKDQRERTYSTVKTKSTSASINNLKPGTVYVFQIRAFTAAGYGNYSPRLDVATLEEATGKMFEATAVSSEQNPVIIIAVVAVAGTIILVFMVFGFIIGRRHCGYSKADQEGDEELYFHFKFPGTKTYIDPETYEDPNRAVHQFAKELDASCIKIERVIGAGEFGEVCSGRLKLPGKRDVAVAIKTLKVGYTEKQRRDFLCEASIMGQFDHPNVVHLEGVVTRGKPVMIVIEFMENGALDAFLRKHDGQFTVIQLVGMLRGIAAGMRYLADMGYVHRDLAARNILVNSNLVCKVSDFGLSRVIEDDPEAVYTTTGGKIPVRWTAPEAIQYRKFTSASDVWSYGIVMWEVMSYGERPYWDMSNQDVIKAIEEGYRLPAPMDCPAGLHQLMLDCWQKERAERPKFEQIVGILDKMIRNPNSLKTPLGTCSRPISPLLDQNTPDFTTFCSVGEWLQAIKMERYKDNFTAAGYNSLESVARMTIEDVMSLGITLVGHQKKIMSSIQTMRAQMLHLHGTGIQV
Series [2] addresses Calcium/calmodulin-dependent protein kinase type II subunit beta (Homo sapiens) (UniProt Q13554). Briefly: Residual activity of human CAMK2b using KKALRRQETVDAL as substrate at 1 uM in presence of 32P-ATP by Hotspot assay relative to control.
In series [3] the target is Tyrosine-protein kinase SYK (Homo sapiens) (UniProt P43405). In words: Inhibition of human SYK using poly[Glu:Tyr] (4:1) as substrate at 1 uM in presence of 32P-ATP by Hotspot assay relative to control; values are per cent of control.
Series [4] deals with Serine/threonine-protein kinase PLK1 (Homo sapiens) (UniProt P53350). In words: Inhibition of human PLK1 using casein as substrate at 1 uM in presence of 32P-ATP by Hotspot assay relative to control; values are per cent of control.
Series [5] deals with Wee1-like protein kinase (Homo sapiens) (UniProt P30291). Briefly: Inhibition of human WEE1 using CDK1 (D146N)/cyclin B1 as substrate at 1 uM in presence of 32P-ATP by Hotspot assay relative to control; values are per cent of control.
Sequence of Wee1-like protein kinase (Homo sapiens) (P30291 whole entry, looked up): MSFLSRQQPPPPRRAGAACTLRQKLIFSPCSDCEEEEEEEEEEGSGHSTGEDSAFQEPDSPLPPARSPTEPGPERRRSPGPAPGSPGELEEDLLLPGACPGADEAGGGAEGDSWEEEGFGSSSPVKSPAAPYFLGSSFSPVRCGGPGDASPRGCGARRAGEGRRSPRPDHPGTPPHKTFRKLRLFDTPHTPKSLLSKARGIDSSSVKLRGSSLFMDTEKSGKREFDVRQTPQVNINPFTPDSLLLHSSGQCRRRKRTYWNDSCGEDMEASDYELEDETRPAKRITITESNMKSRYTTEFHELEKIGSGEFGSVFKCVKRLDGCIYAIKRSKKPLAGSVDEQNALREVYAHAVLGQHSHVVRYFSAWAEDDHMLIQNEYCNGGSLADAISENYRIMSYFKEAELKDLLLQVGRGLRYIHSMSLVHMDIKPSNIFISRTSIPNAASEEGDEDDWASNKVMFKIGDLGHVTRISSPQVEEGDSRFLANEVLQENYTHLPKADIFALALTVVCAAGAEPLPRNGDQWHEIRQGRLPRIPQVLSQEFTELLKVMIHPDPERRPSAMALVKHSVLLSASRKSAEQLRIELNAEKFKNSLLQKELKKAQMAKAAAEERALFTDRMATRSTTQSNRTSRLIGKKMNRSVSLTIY
Series [6] concerns the target Serine/threonine-protein kinase pim-2 (Homo sapiens) (UniProt Q9P1W9). Briefly: Inhibition of human PIM2 using RSRHSSYPAGT as substrate at 1 uM in presence of 32P-ATP by Hotspot assay relative to control; values are per cent of control.
The target in series [7] is T1, Activin receptor type-1 (Homo sapiens) (UniProt Q04771).
T1 sequence (whole entry): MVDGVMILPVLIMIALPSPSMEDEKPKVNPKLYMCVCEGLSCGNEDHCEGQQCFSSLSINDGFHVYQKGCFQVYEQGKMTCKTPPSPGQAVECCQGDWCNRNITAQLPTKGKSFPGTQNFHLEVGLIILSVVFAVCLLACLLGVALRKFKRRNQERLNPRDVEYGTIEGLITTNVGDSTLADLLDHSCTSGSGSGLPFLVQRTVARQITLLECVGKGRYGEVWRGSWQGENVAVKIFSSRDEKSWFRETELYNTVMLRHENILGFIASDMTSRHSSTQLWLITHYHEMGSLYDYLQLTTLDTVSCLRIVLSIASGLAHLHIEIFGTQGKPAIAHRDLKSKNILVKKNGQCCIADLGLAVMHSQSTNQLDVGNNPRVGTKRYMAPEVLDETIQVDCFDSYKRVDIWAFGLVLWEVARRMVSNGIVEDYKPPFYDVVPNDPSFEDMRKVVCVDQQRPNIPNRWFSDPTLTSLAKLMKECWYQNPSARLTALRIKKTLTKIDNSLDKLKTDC
In words: Inhibition of human ALK2/ACVR1 using casein as substrate at 1 uM in presence of 32P-ATP by Hotspot assay relative to control; values are per cent of control.

In series [8] the target is Calcium/calmodulin-dependent protein kinase type 1G (Homo sapiens) (UniProt Q96NX5). Briefly: Inhibition of human CAMK1g using KKALRRQETVDAL as substrate at 1 uM in presence of 32P-ATP by Hotspot assay relative to control; values are per cent of control.
Sequence of Calcium/calmodulin-dependent protein kinase type 1G (Homo sapiens) (Q96NX5 whole entry): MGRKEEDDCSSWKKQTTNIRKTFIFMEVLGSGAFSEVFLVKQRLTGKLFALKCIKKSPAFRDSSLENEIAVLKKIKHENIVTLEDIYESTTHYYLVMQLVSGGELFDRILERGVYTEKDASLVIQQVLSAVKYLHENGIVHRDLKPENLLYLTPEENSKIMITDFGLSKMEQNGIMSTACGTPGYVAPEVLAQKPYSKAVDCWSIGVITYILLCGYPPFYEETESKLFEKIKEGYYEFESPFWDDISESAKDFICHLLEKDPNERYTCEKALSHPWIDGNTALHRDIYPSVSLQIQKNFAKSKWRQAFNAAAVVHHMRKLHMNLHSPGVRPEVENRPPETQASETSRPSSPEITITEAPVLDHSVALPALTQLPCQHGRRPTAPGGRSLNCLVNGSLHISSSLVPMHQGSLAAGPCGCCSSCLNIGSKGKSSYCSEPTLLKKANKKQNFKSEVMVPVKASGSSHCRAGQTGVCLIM
In series [9] the target is T2, Serine/threonine-protein kinase D3 (Homo sapiens) (UniProt O94806).
T2 sequence (whole entry): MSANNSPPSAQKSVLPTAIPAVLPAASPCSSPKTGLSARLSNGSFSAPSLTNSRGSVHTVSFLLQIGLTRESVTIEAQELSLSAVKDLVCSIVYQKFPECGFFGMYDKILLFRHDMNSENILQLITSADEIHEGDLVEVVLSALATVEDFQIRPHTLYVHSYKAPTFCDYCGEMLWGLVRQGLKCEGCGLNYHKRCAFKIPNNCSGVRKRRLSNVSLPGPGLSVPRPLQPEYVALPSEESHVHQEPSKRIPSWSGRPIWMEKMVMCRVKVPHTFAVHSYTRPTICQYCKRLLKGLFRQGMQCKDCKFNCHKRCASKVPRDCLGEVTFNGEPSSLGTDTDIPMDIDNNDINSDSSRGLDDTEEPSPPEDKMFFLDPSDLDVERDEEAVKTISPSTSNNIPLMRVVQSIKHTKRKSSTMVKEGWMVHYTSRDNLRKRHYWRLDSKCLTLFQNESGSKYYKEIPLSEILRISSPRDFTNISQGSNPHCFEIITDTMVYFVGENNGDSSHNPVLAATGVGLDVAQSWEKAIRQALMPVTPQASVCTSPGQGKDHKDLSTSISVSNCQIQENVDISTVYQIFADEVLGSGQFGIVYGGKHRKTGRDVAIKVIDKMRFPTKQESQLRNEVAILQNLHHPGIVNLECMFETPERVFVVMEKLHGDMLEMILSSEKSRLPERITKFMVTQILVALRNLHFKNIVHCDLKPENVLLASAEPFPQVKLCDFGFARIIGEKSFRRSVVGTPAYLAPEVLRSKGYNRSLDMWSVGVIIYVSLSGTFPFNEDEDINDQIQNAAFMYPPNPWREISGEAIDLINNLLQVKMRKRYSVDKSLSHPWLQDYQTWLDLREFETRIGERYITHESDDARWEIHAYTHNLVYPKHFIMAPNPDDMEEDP
In words: Inhibition of human PKCnu/PRKD3 using KKLNRTLSVA as substrate at 1 uM in presence of 32P-ATP by Hotspot assay relative to control; values are per cent of control.

The next series concerns MEF. In words: Induction of apoptosis in RIP3-/- MEF cells transfected with human RIP3mutRHIM incubated for 18 hrs by Cell Titer-Glo luminescent cell viability assay. Format: toxicity, cell-based. The conditions noted are these: mouse. On the technique in general: Cellular ATP, detected with luciferase, serves as a proxy for viable cell number.
The target in series [10] is Calcium/calmodulin-dependent protein kinase type II subunit delta (Homo sapiens) (UniProt Q13557). Briefly: Inhibition of human CAMK2d using KKLNRTLSFAEPG as substrate at 1 uM in presence of 32P-ATP by Hotspot assay relative to control; values are per cent of control.
Sequence of Calcium/calmodulin-dependent protein kinase type II subunit delta (Homo sapiens) (Q13557 whole entry): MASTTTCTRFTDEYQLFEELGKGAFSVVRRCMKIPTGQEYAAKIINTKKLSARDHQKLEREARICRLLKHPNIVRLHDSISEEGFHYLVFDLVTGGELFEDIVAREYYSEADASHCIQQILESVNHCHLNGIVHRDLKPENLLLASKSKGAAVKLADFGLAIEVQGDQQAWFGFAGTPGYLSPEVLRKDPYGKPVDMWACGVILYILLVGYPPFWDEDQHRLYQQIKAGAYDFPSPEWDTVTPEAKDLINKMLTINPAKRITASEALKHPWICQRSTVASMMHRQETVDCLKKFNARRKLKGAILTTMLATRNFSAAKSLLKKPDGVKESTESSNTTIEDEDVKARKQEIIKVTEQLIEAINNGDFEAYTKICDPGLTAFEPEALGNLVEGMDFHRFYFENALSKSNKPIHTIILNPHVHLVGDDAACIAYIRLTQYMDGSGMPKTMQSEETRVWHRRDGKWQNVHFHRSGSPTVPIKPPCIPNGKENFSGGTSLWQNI
Series [11] deals with Serine/threonine-protein kinase 24 (Homo sapiens) (UniProt Q9Y6E0). Briefly: Inhibition of human MST3/STK24 using myelin basic protein as substrate at 1 uM in presence of 32P-ATP by Hotspot assay relative to control; values are per cent of control.
Sequence of Serine/threonine-protein kinase 24 (Homo sapiens) (Q9Y6E0 whole entry, looked up): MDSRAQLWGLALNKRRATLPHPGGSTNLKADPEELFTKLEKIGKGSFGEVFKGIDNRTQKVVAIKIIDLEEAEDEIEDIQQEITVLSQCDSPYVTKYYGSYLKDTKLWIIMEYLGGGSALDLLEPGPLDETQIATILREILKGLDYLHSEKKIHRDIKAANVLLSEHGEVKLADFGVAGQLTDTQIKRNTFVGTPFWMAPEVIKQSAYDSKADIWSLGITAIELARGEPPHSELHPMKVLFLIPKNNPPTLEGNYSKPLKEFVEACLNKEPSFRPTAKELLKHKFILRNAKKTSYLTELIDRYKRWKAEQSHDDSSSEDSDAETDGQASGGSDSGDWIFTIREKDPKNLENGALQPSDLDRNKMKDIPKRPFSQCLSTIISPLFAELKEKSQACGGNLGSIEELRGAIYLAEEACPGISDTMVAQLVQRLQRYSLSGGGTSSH
The target of series [12] is Tyrosine-protein kinase Lck (Homo sapiens) (UniProt P06239). In words: Inhibition of human LCK using poly[Glu:Tyr] (4:1) as substrate at 1 uM in presence of 32P-ATP by Hotspot assay relative to control; values are per cent of control.
Sequence of Tyrosine-protein kinase Lck (Homo sapiens) (P06239 2-509 limits assumed): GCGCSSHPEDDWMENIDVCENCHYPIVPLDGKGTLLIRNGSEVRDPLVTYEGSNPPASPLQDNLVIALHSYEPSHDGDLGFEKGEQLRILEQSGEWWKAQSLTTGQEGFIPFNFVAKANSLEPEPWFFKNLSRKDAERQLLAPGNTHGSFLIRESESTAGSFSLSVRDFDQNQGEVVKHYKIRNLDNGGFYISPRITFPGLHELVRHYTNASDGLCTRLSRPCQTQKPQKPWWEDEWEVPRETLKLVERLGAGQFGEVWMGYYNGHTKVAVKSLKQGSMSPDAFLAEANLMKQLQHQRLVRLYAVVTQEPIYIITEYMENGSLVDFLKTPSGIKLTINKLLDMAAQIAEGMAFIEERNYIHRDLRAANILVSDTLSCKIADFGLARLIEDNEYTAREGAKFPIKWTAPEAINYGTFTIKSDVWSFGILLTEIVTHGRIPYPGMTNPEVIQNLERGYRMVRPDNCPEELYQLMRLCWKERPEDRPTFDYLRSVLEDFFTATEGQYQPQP

Sequence of Serine/threonine-protein kinase pim-2 (Homo sapiens) (Q9P1W9 whole entry, looked up): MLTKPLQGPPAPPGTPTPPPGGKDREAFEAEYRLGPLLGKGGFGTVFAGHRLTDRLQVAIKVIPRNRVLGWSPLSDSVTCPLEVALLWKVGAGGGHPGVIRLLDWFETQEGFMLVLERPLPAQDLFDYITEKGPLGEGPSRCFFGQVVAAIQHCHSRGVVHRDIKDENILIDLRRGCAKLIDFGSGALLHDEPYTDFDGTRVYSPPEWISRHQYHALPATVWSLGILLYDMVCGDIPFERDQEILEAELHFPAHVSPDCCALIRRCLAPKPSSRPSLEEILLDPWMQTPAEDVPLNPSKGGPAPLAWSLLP
Sequence of Calcium/calmodulin-dependent protein kinase type II subunit beta (Homo sapiens) (Q13554 whole entry): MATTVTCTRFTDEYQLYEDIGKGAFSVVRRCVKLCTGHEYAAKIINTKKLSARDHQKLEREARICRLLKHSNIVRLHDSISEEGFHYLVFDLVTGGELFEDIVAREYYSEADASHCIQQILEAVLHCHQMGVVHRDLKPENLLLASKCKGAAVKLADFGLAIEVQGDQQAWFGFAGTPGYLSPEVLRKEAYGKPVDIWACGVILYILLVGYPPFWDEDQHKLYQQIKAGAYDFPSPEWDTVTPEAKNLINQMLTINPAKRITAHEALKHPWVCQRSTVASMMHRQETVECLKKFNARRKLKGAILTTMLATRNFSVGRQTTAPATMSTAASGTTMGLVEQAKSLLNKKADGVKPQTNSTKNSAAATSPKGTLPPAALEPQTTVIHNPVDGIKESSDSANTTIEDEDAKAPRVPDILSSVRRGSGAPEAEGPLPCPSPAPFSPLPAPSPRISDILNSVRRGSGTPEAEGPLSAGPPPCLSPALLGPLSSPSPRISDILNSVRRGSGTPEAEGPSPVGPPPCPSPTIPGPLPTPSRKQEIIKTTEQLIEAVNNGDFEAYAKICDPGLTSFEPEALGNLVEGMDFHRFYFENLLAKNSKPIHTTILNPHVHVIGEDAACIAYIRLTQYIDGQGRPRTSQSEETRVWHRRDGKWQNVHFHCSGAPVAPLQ

`CNC(=O)c1ccc2c(c1)ncn2-c1ccc(CC(=O)OC(C)(C)C)cc1`: the residual activity in [1] is 87.8%; in series [2], 98.3%; in series [3], 87.5%; in series [4], 103%; in series [5], 108%; in series [6], 90.8%. Moreover, the residual activity in [7] turned out to be 80.4%; in [8] it was 94.2%; in [9], 101%; in series [10], 97.3%; in series [11] it was 94%; in [12] it was 13.1%. The Activity entry with MEF is reported as “Non-Toxic”.

As for `Cc1cc(-c2cnc(N)c3c(-c4ccc5scnc5c4)csc23)n(C)n1`, the residual activity in series [1] came to 101%; in series [2], 100%; in [3] it was 92.8%; in series [4], 98.6%; in [5] it was 72.9%; in [6], 93.7%. For the same compound, the residual activity in [7] worked out at 101%; in series [8], 90.9%; in series [9] it was 33.4%; in series [10] it was 104%; in series [11] it was 93.9%; in series [12], 17.3%. Besides, the Activity entry in the series on MEF is “Non-Toxic”.

On to `CC(C)S(=O)(=O)c1ccc2nccc(Nc3ccc4scnc4c3)c2c1`, for which the residual activity stood at 90.8% in series [1]; 104% in series [2]; 93.3% in series [3]; 95.4% in series [4]; 106% in series [5]; 94.9% in [6]. Moreover, the residual activity in series [7] was 102%; in series [8], 85.6%; in series [9], 95.4%; in series [10] it was 98.1%; in [11], 100%; in series [12], 39.4%. Moreover, the Activity entry with MEF is “Non-Toxic”.
